# Measurements taken from publication PMC10289903 (Investigational New Drugs, 2023).
# Tested on: locally advanced or metastatic solid tumors
# Test: Preliminary antitumor activity (ORR, DCR, SD, PFS; RECIST v1.1)
# Type: in vivo, human
# Conditions: for Duration of response: confirmed partial response
# Description: Preliminary efficacy was assessed using objective response rate (ORR) in patients with measurable disease, disease control rate (DCR) and progression-free survival (PFS), all in accordance with RECIST v1.1 [17]. Responses for ORR required confirmation after at least 4 weeks.
# After initiation of treatment, tumor burden was assessed at baseline and every 8 weeks (± 1 week) for the qd 5/9 dosing, and every 9 weeks (± 1 week) for the qd 5/2 treatment schedule, respectively, using computed tomography or magnetic resonance imaging of the chest and abdomen or pelvis.
# The per protocol analysis set was defined as a subset of the full analysis set, excluding subjects having an important protocol deviation, to be used for analyses of efficacy endpoints if appropriate.
# [1] = qd 2.3: 250 mg qd 5/2 weekly (n=10)
# [2] = qd 3.3: 300 mg 5/2 weekly (n=2)
compound,measurement,setting,value
"C=CCn1c(=O)c2cnc(Nc3ccc(N4CCN(C)CC4)cc3)nc2n1-c1cccc(C(C)(C)O)n1 [adavosertib, Adavosertib]",Duration of response,"1 patient with anal carcinoma, qd 1.2 cohort",6.9 months
same,Duration of response,"1 patient with thymoma, bid 2 cohort",3.7 months
same,"DCR, CP + PR + SD/n (%)",Total (N=62),48.4 CP + PR + SD/n (%)
same,"Median PFS, months (95% CI)",Total (N=62),2.7 (2.0–3.8) months
same,"ORR, CP + PR/n (%)","Total, 58 patients with measurable disease at baseline",3.4 CP + PR/n (%)
same,Patients with confirmed (or unconfirmed) complete responses,all cohorts,None
same,Patients alive and progression-free at data cutoff,all cohorts (N=62),14 (22.6%) n (%)
same,Patients who had experienced a PFS event at data cutoff,all cohorts (N=62),47 (75.8%) n (%)
same,"DCR, CP + PR + SD/n (%)",bid 2: 150 mg bid 5/9 (n=6),2 (33.3) CP + PR + SD/n (%)
same,"Median PFS, months (95% CI)",bid 2: 150 mg bid 5/9 (n=6),1.9 (1.0–NC) months
same,Patients progression-free at 6 months after first dose,"of 62 patients, 95% CI 10.0–32.2",19.8%
same,"DCR, CP + PR + SD/n (%)",qd 1.1: 200 mg qd 5/9 (n=5),2 (40.0) CP + PR + SD/n (%)
same,"Median PFS, months (95% CI)",qd 1.1: 200 mg qd 5/9 (n=5),2.0 (0.6–NC) months
same,"ORR, CP + PR/n (%)",qd 1.1: 200 mg qd 5/9 (n=5),0 CP + PR/n (%)
same,"DCR, CP + PR + SD/n (%)",qd 1.2: 200 mg qd 5/2 (n=6),2 (33.3) CP + PR + SD/n (%)
same,"Median PFS, months (95% CI)",qd 1.2: 200 mg qd 5/2 (n=6),2.7 (1.2–9.0) months
same,"DCR, CP + PR + SD/n (%)",qd 2.1: 250 mg qd 5/9 (n=4),1 (25.0) CP + PR + SD/n (%)
same,"Median PFS, months (95% CI)",qd 2.1: 250 mg qd 5/9 (n=4),1.9 (1.8–4.1) months
same,"ORR, CP + PR/n (%)",qd 2.1: 250 mg qd 5/9 (n=4),0 CP + PR/n (%)
same,"DCR, CP + PR + SD/n (%)",qd 2.2: 250 mg qd 5/2 (n=3),2 (66.7) CP + PR + SD/n (%)
same,"Median PFS, months (95% CI)",qd 2.2: 250 mg qd 5/2 (n=3),3.7 (1.2–11.0) months
same,"ORR, CP + PR/n (%)",qd 2.2: 250 mg qd 5/2 (n=3),0 CP + PR/n (%)
same,"DCR, CP + PR + SD/n (%)",[1],3 (30.0) CP + PR + SD/n (%)
same,"Median PFS, months (95% CI)",[1],2.1 (0.6–4.1) months
same,"ORR, CP + PR/n (%)",[1],0 CP + PR/n (%)
same,"DCR, CP + PR + SD/n (%)",qd 3.1: 300 mg qd 5/9 (n=4),3 (75.0) CP + PR + SD/n (%)
same,"Median PFS, months (95% CI)",qd 3.1: 300 mg qd 5/9 (n=4),7.6 (2.7–9.3) months
same,"ORR, CP + PR/n (%)",qd 3.1: 300 mg qd 5/9 (n=4),0 CP + PR/n (%)
same,"DCR, CP + PR + SD/n (%)",qd 3.2: 300 mg qd 5/2 (n=16),11 (68.8) CP + PR + SD/n (%)
same,"Median PFS, months (95% CI)",qd 3.2: 300 mg qd 5/2 (n=16),3.2 (2.1–5.0) months
same,"ORR, CP + PR/n (%)",qd 3.2: 300 mg qd 5/2 (n=16),0 CP + PR/n (%)
same,"DCR, CP + PR + SD/n (%)",[2],0 CP + PR + SD/n (%)
same,"Median PFS, months (95% CI)",[2],2.6 (NC–NC) months
same,"ORR, CP + PR/n (%)",[2],0 CP + PR/n (%)
